Measured values from US20250325552A1, “SUBSTITUTED THIADIAZOLYL DERIVATIVES AS DNA POLYMERASE THETA INHIBITORS” (IDEAYA Biosciences, Inc., priority 2020, published 2025).
pIC50: −log10 of the molar value.

Molecular target: Polθ theta (1-899) (hPolQ) (Homo sapiens (Human), UniProt O75417)
Test: Biological Assay 1: Polθ ATPase activity, NADH oxidation-coupled enzymatic assay (10 nM enzyme, 30 min)
Format: biochemical
Conditions: Polθ (1-899) 10 nM, 100 μM ATP, 300 nM dT50 ssDNA; Examples 1 to 268; read-out: ATPase NADH coupling:Standard Screening:hPolQ IC50
In short: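 Polθ (1-899) at 10 nM was preincubated with compound for 15 min at room temperature in 20 mM Tris pH 7.80, 80 mM KCl, 10 mM MgCl2. An equal volume of 100 μM ATP, 300 nM dT50 ssDNA and a PK/LDH–NADH coupling system was then added. A340 was read each minute for 30 min. IC50 came from rate slopes over 10-point series with a four-parameter fit.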

Sequence of Polθ theta (1-899) (hPolQ) (O75417 1-899): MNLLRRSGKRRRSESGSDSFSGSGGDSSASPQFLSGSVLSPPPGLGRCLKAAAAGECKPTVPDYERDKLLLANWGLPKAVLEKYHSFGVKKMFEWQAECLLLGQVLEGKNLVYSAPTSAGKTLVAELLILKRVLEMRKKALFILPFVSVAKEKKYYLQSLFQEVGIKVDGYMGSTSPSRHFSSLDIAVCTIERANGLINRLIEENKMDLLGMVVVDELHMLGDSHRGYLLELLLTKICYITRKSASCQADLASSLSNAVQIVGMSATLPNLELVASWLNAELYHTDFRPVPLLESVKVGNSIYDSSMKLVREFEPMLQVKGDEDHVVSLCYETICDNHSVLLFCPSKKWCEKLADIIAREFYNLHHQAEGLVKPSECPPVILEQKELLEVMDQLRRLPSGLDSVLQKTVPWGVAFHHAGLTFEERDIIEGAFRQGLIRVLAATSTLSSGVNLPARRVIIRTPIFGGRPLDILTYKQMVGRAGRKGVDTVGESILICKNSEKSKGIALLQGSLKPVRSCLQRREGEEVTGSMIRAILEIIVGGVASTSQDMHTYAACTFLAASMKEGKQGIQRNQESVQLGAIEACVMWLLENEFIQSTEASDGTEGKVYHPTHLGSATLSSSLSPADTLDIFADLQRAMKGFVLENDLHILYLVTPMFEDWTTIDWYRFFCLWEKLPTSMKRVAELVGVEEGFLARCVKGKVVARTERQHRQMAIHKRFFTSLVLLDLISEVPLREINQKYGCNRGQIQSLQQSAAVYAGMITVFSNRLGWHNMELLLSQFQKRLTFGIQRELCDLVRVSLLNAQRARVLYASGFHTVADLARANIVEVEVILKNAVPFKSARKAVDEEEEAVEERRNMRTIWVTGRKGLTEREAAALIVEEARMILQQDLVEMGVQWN

pIC50	Compound
6.30 to 6.70	COc1cccc(F)c1-c1cc2ncn(C)c2cc1C(=O)Nc1nnc(OC[C@H]2CC[C@H](O)CC2)s1 [Example 200, 5-(2-fluoro-6-methoxyphenyl)-N-(5-(((1r,4r)-4-hydroxycyclohexyl)methoxy)-1,3,4-thiadiazol-2-yl)-1-methyl-1H-benzo(d)imidazole-6-carboxamide]
≥ 6.70	COc1cnc(Cl)cc1-c1cc(C)ncc1C(=O)Nc1nnc(OCC2CCOC2C)s1 (centres unmarked) [Example 177, 2′-chloro-5′-methoxy-6-methyl-N-(5-((2-methyltetrahydrofuran-3-yl)methoxy)-1,3,4-thiadiazol-2-yl)-(4,4′-bipyridine)-3-carboxamide]
≥ 6.70	COc1cnc(Cl)cc1-c1cc(C)ncc1C(=O)Nc1nnc(OCC2CCOC2)s1 (racemic) [Example 167, 2′-chloro-5′-methoxy-6-methyl-N-(5-((tetrahydrofuran-3-yl)methoxy)-1,3,4-thiadiazol-2-yl)-(4,4′-bipyridine)-3-carboxamide]
6.30 to 6.70	COc1ccccc1-c1cnccc1C(=O)Nc1nnc(OCC2CCCCO2)s1 (centres unmarked) [compound 2, 3-(2-methoxyphenyl)-N-(5-((tetrahydro-2H-pyran-2-yl)methoxy)-1,3,4-thiadiazol-2-yl)isonicotinamide]
≥ 6.70	COc1cnc(Cl)cc1-c1cc(C)ncc1C(=O)Nc1nnc(OCC2CC3(COC3)C2)s1 [Example 172, N-(5-((2-oxaspiro(3.3)heptan-6-yl)methoxy)-1,3,4-thiadiazol-2-yl)-2′-chloro-5′-methoxy-6-methyl-(4,4′-bipyridine)-3-carboxamide]
5.00 to 6.00	COc1ccccc1-c1nc2cccnc2cc1C(=O)Nc1nnc(OCc2ccc(Cl)cn2)s1 [Example 9, N-(5-((5-chloropyridin-2-yl)methoxy)-1,3,4-thiadiazol-2-yl)-2-(2-methoxyphenyl)-1,5-naphthyridine-3-carboxamide]
≥ 6.70	COc1cnc(Br)cc1-c1cc(C)ncc1C(=O)Nc1nnc(OC[C@H]2CC[C@H](O)CC2)s1 [Example 247, 2′-bromo-N-(5-(((1r,4r)-4-hydroxycyclohexyl)methoxy)-1,3,4-thiadiazol-2-yl)-5′-methoxy-6-methyl-(4,4′-bipyridine)-3-carboxamide]
≥ 6.70	COc1cccc(F)c1-c1cncnc1C(=O)Nc1nnc(OCc2ccc(CO)cn2)s1 [Example 37, 5-(2-fluoro-6-methoxyphenyl)-N-(5-((5-(hydroxymethyl)pyridin-2-yl)methoxy)-1,3,4-thiadiazol-2-yl)pyrimidine-4-carboxamide]
≥ 6.70	COCc1cc(-c2cc(Cl)ncc2OC)c(C(=O)Nc2nnc(OC[C@@H]3COCCO3)s2)cn1 [Example 216, (S)—N-(5-((1,4-dioxan-2-yl)methoxy)-1,3,4-thiadiazol-2-yl)-2′-chloro-5′-methoxy-6-(methoxymethyl)-(4,4′-bipyridine)-3-carboxamide]
≥ 6.70	COc1cnc(C)c(F)c1-c1cc(C)ncc1C(=O)Nc1nnc(OC[C@H]2CC[C@@](C)(O)CC2)s1 [Example 213, 3′-fluoro-N-(5-(((1s,4s)-4-hydroxy-4-methylcyclohexyl)methoxy)-1,3,4-thiadiazol-2-yl)-5′-methoxy-2′,6-dimethyl-(4,4′-bipyridine)-3-carboxamide]
≥ 6.70	COc1cnc(Cl)cc1-c1cc(C)ncc1C(=O)Nc1nnc(OCC2COC(C)(C)C2)s1 (stereo in doubt) [Example 188, (R)-2′-chloro-N-(5-((5,5-dimethyltetrahydrofuran-3-yl)methoxy)-1,3,4-thiadiazol-2-yl)-5′-methoxy-6-methyl-(4,4′-bipyridine)-3-carboxamide]
≥ 6.70	COc1cnc(Cl)c(F)c1-c1cc(C)ncc1C(=O)Nc1nnc(OC[C@@H]2COCCO2)s1 [Example 239, N-(5-(((S)-1,4-dioxan-2-yl)methoxy)-1,3,4-thiadiazol-2-yl)-2′-chloro-3′-fluoro-5′-methoxy-6-methyl-(4,4′-bipyridine)-3-carboxamide]
≥ 6.70	COc1cnc(Cl)cc1-c1cc(C)ncc1C(=O)Nc1nnc(OCc2ccc(C3(C)COC3)cn2)s1 [Example 86, 2′-chloro-5′-methoxy-6-methyl-N-(5-((5-(3-methyloxetan-3-yl)pyridin-2-yl)methoxy)-1,3,4-thiadiazol-2-yl)-[4,4′-bipyridine]-3-carboxamide]
≥ 6.70	COc1cnc(Cl)cc1-c1cc(C)ncc1C(=O)Nc1nnc(OC[C@@H]2COC[C@@H]2C)s1 (single isomer, unassigned) [Example 265]
6.30 to 6.70	COc1ccccc1-c1cc(C)ncc1C(=O)Nc1nnc(OCc2ncccc2CO)s1 [Example 62, N-(5-((3-(hydroxymethyl)pyridin-2-yl)methoxy)-1,3,4-thiadiazol-2-yl)-4-(2-methoxyphenyl)-6-methylpyridine-3-carboxamide]
≥ 6.70	COc1cnc(Cl)cc1-c1cc(C)ncc1C(=O)Nc1nnc(OC[C@@H]2C[C@@H]2F)s1 [Example 202, 2′-chloro-N-(5-(((1S,2S)-2-fluorocyclopropyl)methoxy)-1,3,4-thiadiazol-2-yl)-5′-methoxy-6-methyl-(4,4′-bipyridine)-3-carboxamide]

pIC50	Compound
≥ 6.70	COc1cnc(Cl)cc1-c1cc(C)ncc1C(=O)Nc1nnc(OC[C@@H]2CCO[C@@H]2C)s1 (single isomer, unassigned) [Example 179]
≥ 6.70	COc1ccccc1-c1cc(C)ncc1C(=O)Nc1nnc(O[C@@H](C)c2ccc(Cl)cn2)s1 [Example 11, (S)—N-(5-(1-(5-chloropyridin-2-yl)ethoxy)-1,3,4-thiadiazol-2-yl)-4-(2-methoxyphenyl)-6-methylnicotinamide]
≥ 6.70	COc1cccc(F)c1-c1cc(C)ncc1C(=O)Nc1nnc(OCC2CCS(=O)(=O)CC2)s1 [Example 158, N-(5-((1,1-dioxidotetrahydro-2H-thiopyran-4-yl)methoxy)-1,3,4-thiadiazol-2-yl)-4-(2-fluoro-6-methoxyphenyl)-6-methylnicotinamide]
6.30 to 6.70	COc1ccc(Cl)cc1-c1cnncc1C(=O)Nc1nnc(OCC23CCC(O)(CC2)CC3)s1 [Example 121, 5-(5-chloro-2-methoxyphenyl)-N-(5-((4-hydroxybicyclo(2.2.2)octan-1-yl)methoxy)-1,3,4-thiadiazol-2-yl)pyridazine-4-carboxamide]
≥ 6.70	COc1cccc(F)c1-c1cc(C)ncc1C(=O)Nc1nnc(OCc2cc(CO)ccn2)s1 [Example 72, 4-(2-fluoro-6-methoxyphenyl)-N-(5-((4-(hydroxymethyl)pyridin-2-yl)methoxy)-1,3,4-thiadiazol-2-yl)-6-methylnicotinamide]
6.30 to 6.70	COc1cc(CO)ccc1-c1cc(C)ncc1C(=O)Nc1nnc(OCc2ccc(Cl)cn2)s1 [Example 31, N-(5-((5-chloropyridin-2-yl)methoxy)-1,3,4-thiadiazol-2-yl)-4-(4-(hydroxymethyl)-2-methoxyphenyl)-6-methylnicotinamide]
≥ 6.70	COc1cccc(F)c1-c1cc(C)ncc1C(=O)Nc1nnc(OCc2ccc(CO)cn2)s1 [Example 14, 4-(2-fluoro-6-methoxyphenyl)-N-(5-((5-(hydroxymethyl)pyridin-2-yl)methoxy)-1,3,4-thiadiazol-2-yl)-6-methylpyridine-3-carboxamide]
≥ 6.70	COc1cnc(Cl)cc1-c1cc(C)ncc1C(=O)Nc1nnc(OC[C@H]2CC[C@](C)(O)CC2)s1 [Example 214, 2′-chloro-N-(5-(((1r,4r)-4-hydroxy-4-methylcyclohexyl)methoxy)-1,3,4-thiadiazol-2-yl)-5′-methoxy-6-methyl-(4,4′-bipyridine)-3-carboxamide]
≥ 6.70	COc1ccc(C#N)cc1-c1cc(C)ncc1C(=O)Nc1nnc(OCc2ccc(CO)cn2)s1 [Example 32, 4-(5-cyano-2-methoxyphenyl)-N-(5-((5-(hydroxymethyl)pyridin-2-yl)methoxy)-1,3,4-thiadiazol-2-yl)-6-methylpyridine-3-carboxamide]
5.00 to 6.00	COc1cccc(F)c1-c1cc2nc[nH]c2cc1C(=O)Nc1nnc(OC[C@H]2CC[C@H](O)CC2)s1 [Example 199, 5-(2-fluoro-6-methoxyphenyl)-N-(5-(((1r,4r)-4-hydroxycyclohexyl)methoxy)-1,3,4-thiadiazol-2-yl)-1H-benzo(d)imidazole-6-carboxamide]
≥ 6.70	COc1cnc(Cl)cc1-c1cc(C)ncc1C(=O)Nc1nnc(OC[C@H]2CCOC2(C)C)s1 (single isomer, unassigned) [Example 190]
≥ 6.70	COc1cnc(Cl)cc1-c1cc(C)ncc1C(=O)Nc1nnc(OC[C@H]2CCO[C@H]2C)s1 (single isomer, unassigned) [Example 181]
6.00 to 6.30	COc1ccccc1-c1cc(C)ncc1C(=O)Nc1nnc(OCc2nccc3[nH]ncc23)s1 [Example 10, N-(5-((1H-pyrazolo(4,3-c)pyridin-4-yl)methoxy)-1,3,4-thiadiazol-2-yl)-4-(2-methoxyphenyl)-6-methylnicotinamide]
≥ 6.70	COc1cnc(Cl)cc1-c1cc(C)ncc1C(=O)Nc1nnc(OC[C@@H]2CC[C@H](O)C2)s1 (single isomer, unassigned) [Example 211]
≥ 6.70	COc1cccc(F)c1-c1cc(C)ncc1C(=O)Nc1nnc(OCc2ccc([S@](C)(=N)=O)cc2)s1 [Example 114, 4-(2-fluoro-6-methoxyphenyl)-6-methyl-N-(5-((4-((R)—S-methylsulfonimidoyl)benzyl)oxy)-1,3,4-thiadiazol-2-yl)nicotinamide]
≥ 6.70	COc1cnc(C)cc1-c1cc(C)ncc1C(=O)Nc1nnc(OCc2ccc(C(=O)O)cn2)s1 [Example 90, 6-(((5-(5′-methoxy-2′,6-dimethyl-(4,4′-bipyridine)-3-amido)-1,3,4-thiadiazol-2-yl)oxy)methyl)pyridine-3-carboxylic acid]
